# Measurements as given in PMC4967898, “Peptides interfering with protein-protein interactions in the ethylene signaling pathway delay tomato fruit ripening” (Scientific Reports, 2016).
# “Also recorded” adds a separate entry of the source.
# Tests used:
# [1] = Fluorescence of the dyes on their own (FRET control); settings: 100 μM peptide; free dyes
# Source text: For this purpose, we made use of a fluorescence resonance energy transfer (FRET)-based in vitro assay, originally established for the respective Arabidopsis signaling proteins. Recombinant ethylene proteins LeETR1 and LeEIN2^462–1316 were labeled with fluorescent Alexa dyes[36] as described in the Methods section. LeETR1 was labeled with Alexa Fluor 488, while LeEIN2^462–1316 was labeled with Alexa Fluor 568. As the emission spectrum of the donor fluorophore partially overlaps with the excitation spectrum of the acceptor fluorophore, the dyes form a FRET pair and energy transfer from the donor to the acceptor fluorophore is possible when both probes get in close proximity. […] Formation of the complex is monitored by FRET from the donor molecule Alexa Fluor 488 to the acceptor molecule Alexa Fluor 568. Processes or molecules that prevent complex formation result in a reduced FRET from the donor to the acceptor, which is detected as reduced acceptor fluorescence at the emission maximum.
# (b) Calculation of IC50 value for NOP-1. Data were obtained in the FRET-assay in presence of increasing concentrations of NOP-1 peptide. […] (c) Determination of Kd value of NOP-1 binding to LeETR1 based on MST is illustrated. MST-signal is plotted against the NOP-1 concentration. […] All data (a,b,c) represent the mean +/− standard deviation.
# [2] = system: climacteric tomato fruits; assay: Real-time monitoring of ethylene production of tomato fruits (laser-based ethylene detector); assay type: in vivo, tomato (Solanum pimpinellifolium)
# Description: Aminoethoxyvinyl glycine (AVG) was purchased from Sigma-Aldrich, St Louis, MO (purity ~95%). SmartFresh^SM (AgroFresh, Spring House, PA) was used as sugar-based powder formulation of 1-MCP. Concentration of 1-MCP was calculated according to the percentage of active ingredient (0.14%) and release from the SmartFresh^SM powder. For comparison concentration of all inhibitors are expressed in terms of molarity. For treatment of tomato fruits with NOP-1, AVG and MCP, inhibitors were dissolved in the FRET buffer described in the previous section to a final concentration of 200 μM. Green tomato fruits (Solanum pimpinellifolium) from the same estimated developmental stage were harvested from the panicle and water-cleaned. 300 μL of the inhibitor solution was applied onto the tomato surface with a brush and the fruits were air-dried for 30 min. As an alternative application, tomato fruits were plunged into 2 mL of the inhibitor solution and incubated for 30 min in this solution or 200 μL of the peptide-containing solution were carefully injected into the tomato tissue by a hypodermic syringe. Three individual tomato fruits were treated for the different applications of the peptide in order to document the ripening process. After inhibitor-treatment tomato fruits were transferred to a vial closed with aluminum foil and stored in the dark at room temperature. Maturation process was documented every second day for at least 20 days. For measurement of ethylene production, green tomato fruits were treated as described above.
# Real-time monitoring of ethylene production
# Ethylene production was continuously monitored over 19 days with a laser-based ethylene detector (ETD-300; Sensor Sense BV; Nijmegen, Netherlands). A detailed description of the system has been given elsewhere. Briefly, the detector consists of a laser emitting radiation in the 10 micrometers infrared wavelength region and a photoacoustic cell, in which ethylene is detected due to its strong fingerprint-like absorption pattern in this region. Inside the photoacoustic cell ethylene can absorb the laser radiation and converts it into kinetic energy by energy exchange processes, resulting in local heating of the sample. By switching on and off the light, rapid heating/cooling can occur, giving rise to a periodical pressure change, i.e. sound wave. The amplitude of these waves is directly proportional to the concentration of ethylene in the photoacoustic cell and can be detected very accurately with sensitive miniature microphones.
# Six tomato fruits for each treatment, including an untreated group (buffer control, CT) were placed into glass cuvettes (150 ml volume) and connected to a gas flow through system (VC-6, Sensor Sense BV; Nijmegen, Netherlands) under a continuous flow routine as described in Ref. [58]. The […] ensured that the samples were continuously flushed with air at a constant flow of 2 l/h and allowed automated sampling of ethylene from the headspace of six cuvettes. Each cuvette was alternatively connected to the ETD-300 and ethylene emitted in the headspace was measured for 12 min. […] The ethylene production was related to the emission rate by multiplying the measured value with the flow rate (expressed in nanoliters per hour, nl/h) and further normalized with the fresh weight (expressed in grams, gFW); the end result being nanoliters per hour per gram of fresh weight, nl/h∙gFW.
# Arabidopsis EIN2-ETR1 = settings: proteins from Arabidopsis, cited from earlier work
# Source text: Studies on the related tomato proteins in this work emphasize that NOP-1 follows the same inhibitory mechanism also in other plants.
compound,measurement,setting,value
"CC(C)C[C@H](NC(=O)[C@H](CCCNC(=N)N)NC(=O)[C@H](CCCNC(=N)N)NC(=O)[C@H](CCCCN)NC(=O)[C@H](Cc1ccc(O)cc1)NC(=O)[C@H](CCCNC(=N)N)NC(=O)[C@H](CCCCN)NC(=O)[C@@H](N)CC(C)C)C(N)=O [NOP-1, LKRYKRRL-NH2]",effect on fluorescence of the dyes on their own,[1],"not affected by the peptides; also recorded: Neither of both peptides affected fluorescence of the free, unlabeled dyes"
same,"time of ethylene production peak, injected or incubated fruits","[2]; 200 μM NOP-1, injected or incubated",6 to 8 days
same,initial ethylene burst in injected fruits,"[2]; 200 μM NOP-1, injected, attributed to wounding",ethylene burst detected in the injected fruits; also recorded: initial burst in ethylene production within the first hours
same,"time of ethylene production peak, surface-treated fruits","[2]; 200 μM NOP-1, surface-treated, same time as control fruits",~12 days
same,ethylene production compared with controls (in words),"[2]; 200 μM NOP-1, surface treatment, injection, incubation, versus untreated fruits and buffer control, six fruits per treatment, 21 °C, dark",do not significantly differ from controls; also recorded: No reduction in ethylene production is evident; also recorded: modest increase rather than an inhibition of ethylene production
same,"Ethylene production over 18 days (total ethylene release, average of applications)","[2]; fruits treated with 200 μM NOP-1, average of surface-application, incubation and injection, injected fruits corrected for initial ethylene burst, six fruits per treatment, 21 °C, dark",616 +/- 46 nl/gFW
same,effect on EIN2-ETR1 interaction in Arabidopsis,Arabidopsis EIN2-ETR1,reduced or abolished EIN2-ETR1 interaction; also recorded: able to disrupt interaction of EIN2 and ETR1
same,IC50,Arabidopsis EIN2-ETR1; read-out: IC50 for inhibition of EIN2-ETR1 interaction in Arabidopsis,93 µM
